These molecules were tested against T1, Beta-3 Adrenergic Receptor (Homo sapiens, UniProt P13945) (assay: HTRF cAMP antagonist assay, IC50 determination). Settings: CHO-K1 cells stably expressing recombinant receptor; vs isoproterenol at EC90; unit nM.
T1 construct: expressed in transfected cells; host or cells: CHO-K1
Format: cell-based
Description: HTRF CAMP assays were performed according to manufacturer's instructions (Cisbio, CAMP Dynamic 2 Assay Kit; #62AM4PEJ). CHO-K1 cells stably expressing recombinant receptor were harvested and suspended in warm PBS to make a 300,000 cells/mL stock. This cell suspension was dispensed into 384 well assay plates (PerkinElmer ProxiPlate #6008280) at 5 μL per well (1500 cells/well) along with a CAMP standard curve.
Compounds were dissolved and serially diluted (5-fold) in DMSO to generate a 10-point dose response stock. […] After a brief incubation, 2.5 μL of isoproterenol stock, prepared at a concentration 4 times its EC90 at the receptor of interest, was added to the wells. The EC90 for isoproterenol, a beta-adrenergic agonist, was determined in separate experiments using standard methods to measure agonist potencies.
Following a 1-hour incubation at room temperature, 5 μL of CAMP-D2 Reagent diluted in Lysis Buffer was added to each well followed by 5 μL of Cryptate Reagent. Plates were further incubated at room temperature for 1 hour prior to reading. Time resolved fluorescence measurements were collected on a suitable, HTRF-capable plate reader.
Counts from the plate reader were fit to the CAMP standard curve on the assay plate in order to determine cAMP concentrations in each well, and these values were used to construct dose-response curves to obtain IC50 values.

T1 sequence (P13945 whole entry): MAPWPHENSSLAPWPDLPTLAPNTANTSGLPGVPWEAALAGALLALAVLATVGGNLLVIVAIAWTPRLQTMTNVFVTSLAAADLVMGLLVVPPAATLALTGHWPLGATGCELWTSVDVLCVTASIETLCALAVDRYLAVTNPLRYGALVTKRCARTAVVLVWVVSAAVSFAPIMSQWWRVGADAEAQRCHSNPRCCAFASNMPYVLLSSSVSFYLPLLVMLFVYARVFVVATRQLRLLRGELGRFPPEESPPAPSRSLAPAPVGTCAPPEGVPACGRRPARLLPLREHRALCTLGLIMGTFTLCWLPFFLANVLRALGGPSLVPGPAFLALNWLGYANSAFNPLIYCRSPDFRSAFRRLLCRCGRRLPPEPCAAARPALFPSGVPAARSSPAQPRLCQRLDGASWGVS

Row | IC50 [nM] | Compound
1 | 57.7 | CNS(=O)(=O)c1cccc(OCC(O)CNC2COC3(CCN(S(=O)(=O)c4cccc(-c5cnn(C)c5)c4)CC3)C2)c1 [Compound B216, 3-((S)-2-hydroxy-3-((S)-8-(3-(1-methyl-1H-pyrazol-4-yl)phenylsulfonyl)-1-oxa-8-azaspiro[4.5]decan-3-ylamino)propoxy)-N-20 methylbenzenesulfonamide]
2 | 155 | CCOCCNS(=O)(=O)c1cccc(OCC(O)CNC2COC3(CCN(S(=O)(=O)c4ccc5ccccc5c4)CC3)C2)c1 [Compound B47, NV-(2-ethoxyethyl)-3-((2S)-2-hydroxy-3-(8-(naphthalen-2-ylsulfonyl)-1-oxa-8-azaspiro[4.5]decan-3-ylamino)propoxy)benzenesulfonamide]

Row | Compound | IC50 [nM]
3 | C[C@@H](NS(=O)(=O)c1cccc(OC[C@@H](O)CNC2COC3(CCN(S(=O)(=O)c4ccc5ccccc5c4)CC3)C2)c1)C1CC1 (stereo partly drawn) [Compound B93, N—((R)-1-cyclopropylethyl)-3-((2S)-2-hydroxy-3-(8-(naphthalen-2-ylsulfonyl)-1-oxa-8-25 azaspiro[4.5]decan-3-ylamino)propoxy)benzenesulfonamide] | 112

Reference: patent US20250127773A1, “MODULATORS OF THE BETA-3 ADRENERGIC RECEPTOR USEFUL FOR THE TREATMENT OR PREVENTION OF HEART FAILURE” (Arena Pharmaceuticals, Inc., priority 2021, published 2025)
